Laboratory results: patent US12234227B2, “Pyrazole derivatives as H4 antagonist compounds” (NXERA PHARMA UK LIMITED, priority 2018, dated 2025)
Where a name gives a salt, the structure may show the parent alone.

How the values were obtained:
human H4 receptor = biological target: T1, human H4 receptor (Homo sapiens, UniProt Q9H3N8); experiment: H4 Antagonist Functional cAMP Gi Assay; assay type: cell-based; conditions: H4 antagonist activity, read-out: Human H4 CAMP fpKb (converted)
T1 construct: expressed in transfected cells; host or cells: HEKf cells transduced with baculovirus
Procedure: H4 Antagonist Functional cAMP Gi Assay
HEKf cells were infected overnight using baculovirus expressing the human H4 receptor, then centrifuged at 1,200 rpm for 5 min, frozen in cell freezing medium (Sigma) and stored at −150° C. On the day of assay, the cells were thawed and resuspended in HBSS with 500 nM IBMX to achieve a density of 1,500 cells/well. H4 ligands were prepared in DMSO and stamped by LabCyte ECHO acoustic dispensing at 25 nL in low volume plates. 10 μL/well cells were plated in the presence of 1 μM forskolin, subjected to centrifugation at 1,200 rpm for 1 min and incubated for 30 min prior to addition of Cisbio cAMP detection reagents to a total volume 20 μL/well. For the antagonist assay, cells were pre-incubated with H4 antagonist ligands for 30 min prior to addition of EC80 concentration of histamine and a further 30 min incubation. Following detection reagent addition and shaking at room temperature for 60 min, cAMP accumulation was measured using HTRF on a PheraStar plate reader. EC50 values were generated using a 4-parameter logistical fit equation to quantify agonist potencies. Functional antagonist affinity values were generated using the Cheng-Prusoff equation to calculate a pKb value using the antagonist assay data.

hERG = hERG (Homo sapiens, UniProt Q12809); experiment: hERG Assay (QPatch automated patch clamp; single-concentration assay at 30 μM and pIC50 assay); conditions: for inhibition at 30 µM: human, CHO cells stably expressing hERG
Chain of hERG (Q12809 whole entry): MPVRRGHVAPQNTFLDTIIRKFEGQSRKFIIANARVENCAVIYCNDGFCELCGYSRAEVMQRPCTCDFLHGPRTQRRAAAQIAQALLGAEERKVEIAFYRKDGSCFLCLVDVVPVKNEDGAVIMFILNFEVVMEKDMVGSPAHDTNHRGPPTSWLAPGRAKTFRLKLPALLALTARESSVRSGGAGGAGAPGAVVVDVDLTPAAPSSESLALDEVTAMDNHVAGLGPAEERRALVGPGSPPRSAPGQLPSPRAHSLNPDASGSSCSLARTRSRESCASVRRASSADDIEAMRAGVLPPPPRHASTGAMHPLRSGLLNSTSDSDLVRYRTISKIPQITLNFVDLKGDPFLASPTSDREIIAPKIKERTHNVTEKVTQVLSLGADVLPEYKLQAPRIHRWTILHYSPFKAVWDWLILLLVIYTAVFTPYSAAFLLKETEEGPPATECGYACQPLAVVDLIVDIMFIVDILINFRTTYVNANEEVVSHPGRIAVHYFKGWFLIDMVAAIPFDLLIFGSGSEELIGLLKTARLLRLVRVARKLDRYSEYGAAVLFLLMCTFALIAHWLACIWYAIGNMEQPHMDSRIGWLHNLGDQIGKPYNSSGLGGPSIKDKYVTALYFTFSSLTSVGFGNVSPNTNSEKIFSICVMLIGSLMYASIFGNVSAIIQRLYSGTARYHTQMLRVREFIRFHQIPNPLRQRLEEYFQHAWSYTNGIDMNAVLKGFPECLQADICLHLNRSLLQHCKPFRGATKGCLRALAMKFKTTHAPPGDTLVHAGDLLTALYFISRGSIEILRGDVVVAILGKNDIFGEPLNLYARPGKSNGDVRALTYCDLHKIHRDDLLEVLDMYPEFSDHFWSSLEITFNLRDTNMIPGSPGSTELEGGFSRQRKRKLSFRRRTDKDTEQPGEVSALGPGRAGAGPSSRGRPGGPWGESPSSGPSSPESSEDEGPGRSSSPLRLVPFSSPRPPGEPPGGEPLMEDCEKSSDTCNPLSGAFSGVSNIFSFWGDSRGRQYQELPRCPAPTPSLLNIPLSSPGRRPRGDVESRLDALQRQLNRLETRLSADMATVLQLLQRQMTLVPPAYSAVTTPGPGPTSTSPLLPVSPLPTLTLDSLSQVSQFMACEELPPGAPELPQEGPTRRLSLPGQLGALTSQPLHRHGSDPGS

SMILES | Kb (human H4 receptor) [nM] | inhibition at 30 µM (hERG) [%] | IC50 (hERG) [nM]
CN[C@@H]1CCN(c2cc(-c3ccn[nH]3)nc(N)n2)C1 [Example 1-1, (R)-4-(3-(methylamino)pyrrolidin-1-yl)-6-(1H-pyrazol-5-yl)pyrimidin-2-amine] | 50.1 |  | ≥ 100000
CN[C@@H]1CCN(c2cc(-c3ccnn3C)nc(N)n2)C1 [Example 1-2, (R)-4-(1-methyl-1H-pyrazol-5-yl)-6-(3-(methylamino)pyrrolidin-1-yl)pyrimidin-2-amine dihydrochloride] | 794 |  | 
CN[C@@H]1CCN(c2cc(-c3ccn(C)n3)nc(N)n2)C1 [Example 2-1, (R)-4-(1-methyl-1H-pyrazol-3-yl)-6-(3-(methylamino)pyrrolidin-1-yl)pyrimidin-2-amine] | 39.8 |  | ≥ 100000
CN[C@@H]1CCN(c2cc(-c3ccn(C(F)F)n3)nc(N)n2)C1 [Example 2-2, (R)-4-(1-(difluoromethyl)-1H-pyrazol-3-yl)-6-(3-(methylamino)pyrrolidin-1-yl)pyrimidin-2-amine dihydrochloride] | 50.1 | 99 | 
CN[C@@H]1CCN(c2cc(-c3cc(C)n[nH]3)nc(N)n2)C1 [Example 3-1, (R)-4-(3-methyl-1H-pyrazol-5-yl)-6-(3-(methylamino)pyrrolidin-1-yl)pyrimidin-2-amine] | 7.94 | < 1 | 
CN[C@@H]1CCN(c2cc(-c3cc(C4CC4)n[nH]3)nc(N)n2)C1 [Example 3-2, dihydrochloride] | 100 | 39 | 
CN[C@@H]1CCN(c2cc(-c3cc(C(F)F)n[nH]3)nc(N)n2)C1 [Example 3-3, (R)-4-(3-(difluoromethyl)-1H-pyrazol-5-yl)-6-(3-(methylamino)pyrrolidin-1-yl)pyrimidin-2-amine] | 50.1 |  | 
CN[C@@H]1CCN(c2cc(-c3cc(C(F)(F)F)n[nH]3)nc(N)n2)C1 [Example 3-4, (R)-4-(3-(methylamino)pyrrolidin-1-yl)-6-(3-(trifluoromethyl)-1H-pyrazol-5-yl)pyrimidin-2-amine ditrifluoroacetate salt] | 63.1 | 45 | 
CN[C@@H]1CCN(c2cc(-c3cc(C)n(C)n3)nc(N)n2)C1 [Example 5-1, diformate] | 398 |  | 
Cc1cn[nH]c1-c1cc(N2CC3CCNC3C2)nc(N)n1 (stereo not shown) [Example 16-6] | 631 |  | 

Continued, in another order:

Kb (human H4 receptor) [nM] | SMILES | inhibition at 30 µM (hERG) [%] | IC50 (hERG) [nM]
6.31 | CN[C@@H]1CCN(c2cc(-c3[nH]nc4c3CCC4)nc(N)n2)C1 [7.4] | 16 | 
398 | Cc1n[nH]c(-c2cc(N3CC[C@@H](N)C3)nc(N)n2)c1C [Example 7-6] |  | 
126 | CCc1n[nH]c(-c2cc(N3CC[C@@H](N)C3)nc(N)n2)c1C [Example 7-8] |  | 
631 | CN[C@@H]1CCN(c2cc(-c3cnn(CCO)c3)nc(N)n2)C1 [Example 8-9] |  | 
501 | CN[C@@H]1CCN(c2cc(-c3cnn(C4COC4)c3)nc(N)n2)C1 [Example 8-11] |  | 
794 | CN[C@@H]1CCN(c2cc(-c3cnn(CCC#N)c3)nc(N)n2)C1 [Example 8-12] |  | 
200 | CN[C@@H]1CCN(c2cc(-c3cnn(CC#N)c3)nc(N)n2)C1 [Example 8-13] |  | 
794 | CCOC(=O)N1CCCC(n2cc(-c3cc(N4CC[C@@H](NC)C4)nc(N)n3)cn2)C1 (stereo partly shown) [Example 8-14] |  | 
501 | Nc1nc(-c2cnn(CC(F)(F)F)c2)cc(N2CC[C@@H](N)C2)n1 [Example 8-18, dihydrochloride] |  | 
39.8 | CN[C@@H]1CCN(c2cc(-c3cn[nH]c3C(F)F)nc(N)n2)C1 [Example 9-5] |  | 
794 | CN[C@@H]1CCN(c2cc(-c3cn(C)nc3C#N)nc(N)n2)C1 [Example 11-5] |  | 
7.94 | CNC1CN(c2cc(-c3[nH]ncc3C)nc(N)n2)C1 [Example 16-3, ditrifluoroacetate] |  | 
398 | Cc1cn[nH]c1-c1cc(N2CC(N)C2)nc(N)n1 [Example 16-4, ditrifluoroacetate] |  | 
20 | CNC1(C)CN(c2cc(-c3[nH]ncc3C)nc(N)n2)C1 [Example 16-5, ditrifluoroacetate] |  | 
